# Source: patent publication US20060287347A1, “Methods for treating smooth muscle disorders using trospium” (priority 2005, published 2006)
# Like-named read-outs stand apart in the source and are kept apart here.
# Key:
# [1] = biological target: T1, human recombinant muscarinic receptor M-4 (Homo sapiens, UniProt P08173); assay: Ligand binding, affinity for muscarinic receptors (M-4); conditions: membranes from SF9 cells, radioligand 3H scopolamine methylchloride; read-out: Affinity (negative logarithm of the dissociation constant Ki), M-4 (converted)
# T1 sequence (P08173 1-479): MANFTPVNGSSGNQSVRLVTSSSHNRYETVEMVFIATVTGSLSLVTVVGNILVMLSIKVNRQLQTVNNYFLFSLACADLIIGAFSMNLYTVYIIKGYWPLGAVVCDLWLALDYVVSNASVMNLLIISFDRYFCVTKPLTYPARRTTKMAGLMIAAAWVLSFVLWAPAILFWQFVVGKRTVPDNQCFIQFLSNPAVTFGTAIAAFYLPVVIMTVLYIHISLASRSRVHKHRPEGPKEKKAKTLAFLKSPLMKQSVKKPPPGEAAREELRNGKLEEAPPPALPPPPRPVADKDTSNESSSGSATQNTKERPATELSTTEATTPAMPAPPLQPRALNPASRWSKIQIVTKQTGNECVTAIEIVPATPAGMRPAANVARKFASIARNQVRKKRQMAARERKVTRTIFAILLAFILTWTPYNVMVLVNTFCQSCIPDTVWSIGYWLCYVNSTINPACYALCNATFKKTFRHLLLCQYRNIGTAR
# Method: The experiments were carried out on membranes prepared from SF9 cells that expressed human recombinant muscarinic receptor subtypes. After incubation with the test article and the proper radioligand (^3H scopolamine methylchloride) and washing, bound radioactivity was determined with a liquid scintillation counter, using a commercial scintillation cocktail. The specific radioligand binding to a muscarinic receptor was defined as the difference between total binding and nonspecific binding determined in the presence of an excess of unlabelled atropine.
# learning behavior = assay: Cognitive side effects, Test Protocol 1: T-shaped maze learning; assay type: in vivo, rat; conditions: for Effect on learning behavior (time to choose the correct arm of the T-maze): conscious rats, naive animals
# Method: Conscious rats are used. The animals are placed at the base of a T-shaped maze with a reward placed in one of the arms of the maze. The effect of the test article on learning is determined by investigating the time it takes in the maze before the rats choose the correct arm of the maze. Experiments were also performed in rats that had been pretreated with phenylephrine to increase the permeability of the blood-brain barrier. Control groups of animals were treated with placebo (vehicle only) or with oxybutynin.
# [2] = test system: carbachol-induced contractions of urinary bladder strips; assay: Antimuscarinic activity on bladder smooth muscle strips (carbachol-induced contractions); assay type: cell-based, guinea pig; conditions: Cavia porcellus, read-out: KB, inhibition of carbachol-induced contractions
# Method: • Experiments have now been performed using methods described by Kachur et al, 1988, J Pharmacol Exp Ther 247: 867-872) and Noronha-Blob et al. J Pharmacol Exp Ther 256: 562-567). Strips of tissue (approximately 10 mm long and 1.5 mm wide) were removed from the urinary bladder of male guinea pigs. The tissues were suspended in an oxygenated buffer of the following composition, in mM: NaCl 133; KCl 4.7; CaCl2 2.5; MgSO4 0.6; […] The smooth muscle strips were maintained at or about 37.5° C. in tissue chambers and allowed to equilibrate with the bathing solution for one hour before proceeding with the experiment. […] R., Wright S. E., Aberg […]. 1998, 48: 1012-1018).
# [3] = test system: behavioral, neurological, autonomic and toxicity changes; assay: Cognitive side effects, Test Protocol 2: modified Irwin test; assay type: in vivo, mouse; conditions: oral dosing
# Method: Modified Irwin tests were performed. This is a routine neuro-pharmacological test method. Conscious mice were used. The procedure involved an initial phase of undisturbed observation and a later manipulative phase. An animal's assessment started by observing its undisturbed behavior in housing (body position, locomotor activity, etc.). Thereafter the animal was transferred by tail on the working table for the manipulative phase (spatial locomotion, gait, aggressiveness, etc.). The occurrence of any unexpected state was noted. The responses to test substances were assessed at 60 min, 120 min and 24 hrs after dosing. Animals were dose orally with trospium chloride, some groups of animals had been pretreated with phenylephrine to increase the permeability of the blood-brain barrier. Criteria included behavioral, neurological, autonomic and toxicity changes in comparison with vehicle-treated groups. The results were expressed for each group as the number of animals displaying behavioral changes versus the corresponding control group at each observation time. No statistical analysis was carried out since the lack of statistically significant differences were obvious to the investigator.
# [4] = male guinea pig urinary bladder strips
SMILES,Ki [1],Effect on learning behavior (time to choose the correct arm of the T-maze) (learning behavior; ongoing studies),"Kb [2, 4]",Kb [2],further results
NC(=O)C(c1ccccc1)(c1ccccc1)[C@@H]1CCN(CCc2ccc3c(c2)CCO3)C1 [Darifenacin],39.8 nM,–,–,–,–
CCN(CC)CC#CCOC(=O)C(O)(c1ccccc1)C1CCCCC1 (stereo not drawn) [Oxybutynin],–,learning is delayed,1.5 to 5.5 nM,–,–
Cc1ccc(O)c([C@H](CCN(C(C)C)C(C)C)c2ccccc2)c1 [Tolterodine],12.6 nM,–,–,1.5 to 5.5 nM,–
"O=C(O[C@H]1C[C@H]2CC[C@@H](C1)[N+]21CCCC1)C(O)(c1ccccc1)c1ccccc1 [Trospium, endo-3-[(hydroxydiphenyl-acetyl)oxy]spiro[8-azoniabicyclo[3.2.1]octane-8,1′-pyrrolidinium]chloride]",–,does not influence the learning behavior,–,1.5 to 5.5 nM,"Behavioral changes in modified Irwin test versus control group ([3]; conscious mice, assessed at 60 min, 120 min and 24 hrs): did not influence the test results; Behavioral changes in modified Irwin test after phenylephrine pretreatment ([3]; mice pretreated with phenylephrine to increase BBB permeation): no significant effects; Further impairment of learning behavior (learning behavior; rats in which a learning disorder has been induced with oxybutynin, ongoing studies): no further impairment of learning behavior; Impairment of learning behavior after phenylephrine pretreatment (learning behavior; rats pretreated with phenylephrine to increase blood-brain barrier permeability): did not uncover any impairment of learning behavior"
CC(CC(c1ccccc1)c1ccccc1)NC(C)(C)C (stereo not drawn) [terodiline],–,–,1.5 to 5.5 nM,–,–
